One compound from patent publication US20050054716A1, “Pharmaceutical compositions and methods of using taxane derivatives” (priority 2002, published 2005) can be followed below.

Converted amounts (≈) assume the structure as drawn.

Common to all, as to type: physicochemical
Series [1] in a line: Intrinsic aqueous solubility. As to conditions: desirable physiological pH range. The text has this: Therefore, it was necessary to formulate the compound in such a way to get the desired solubility at a physiological pH and maintain stability prior to administration.
Series [2] is described as follows: Solubility in solutions of dehydrated alcohol and POE castor oil. The note with it: Dehydrated Alcohol 7.50% v/v, POE Castor Oil 4% v/v. On the procedure: However, this solution cannot be injected directly into patients as the non-aqueous components exceed 20%, thus potentially causing irritation at the injection site. […] It has been shown that the precipitation can be avoided by inclusion of a co-solvent such as polyoxyethylated (POE) castor oil in the formulation. Subsequently, solubility of the drug substance was determined in solutions containing various amounts of dehydrated alcohol and POE castor oil. Approximately 20 mg of drug was added to 3 mL aliquots of the solutions shown below in Table III. Samples were stirred for 16 hours, filtered trough 0.45 micron nylon syringe filters and analyzed by HPLC for drug concentration.

Series [3] is described as follows: Stability of antioxidant formulation at 25° C. for 4 months. The note with it: for Appearance / Potency / pH: formulation with 0.1% each of three antioxidants. The procedure:
A formulation containing 1.5 mg/mL of Compound 1a, 0.075 mL/mL of ethanol, 0.04 mL/mL of POE castor oil in a tartrate buffer and containing 0.1% each of sodium formaldehyde sulfoxylate, L-cysteine HCl and ascorbic acid was prepared. Samples were placed on stability at 25° C. for 4 months. […] Additionally, there were no changes in potency or total oxidative degradants for the samples.

Series [4] in a line: Stability in solution containing ethanol and POE castor oil at 50° C. The text has this:
However, as shown below in Table IV, drug degradation occurs in a solution containing ethanol and POE castor oil due to peroxide impurities present in POE castor oil. […] As shown below, the stability of the solution containing POE castor oil was much lower than the injection solution without the co-solvent.

Series [5] is described as follows: Dilution of 15 mg/mL ethanol/tartrate solution with aqueous diluents. The note with it: 15 mg/mL in 75% ethanol/10 mM tartrate buffer diluted with 0.9% sodium chloride injection or 5% dextrose injection.
A short description of series [6]: Effect of pH on stability, 16.7% v/v ethanol:0.1M citrate buffers. As to conditions: 0.2 mg drug/mL, 2 days at 85° C. The procedure: (§1) The effect of pH on the drug substance stability was also studied. The buffer pH providing maximum stability was determined by comparing the stability of prototype formulations of the drug substance. […] Relative area percents of drug peaks were evaluated following 2 days storage at 85° C. […] Subsequent experiments evaluated stability (1 mg drug/mL) in 75% v/v ethanol:0.01M tartrate buffer. Three mL aliquots of samples were dispensed into 5 cc Type I glass vials and closed with West 4405/50 20 mm stoppers. Percent drug substance remaining, impurities and degradants were evaluated following 18 days storage at 50° C. and compared to initial values.

Series [7] is described as follows: Effect of pH on stability, 75% v/v ethanol:0.01M tartrate buffer. The note with it: 18 days at 50° C. On the procedure:
as §1

Where [8] appears, read: during 4 months of storage at 25° C.

Broadly, the Solubility is the dissolved amount per volume that the medium holds. A low value points to a poorly soluble substance. For `CSCO[C@H]1C[C@H]2OC[C@@]2(OC(C)=O)[C@H]2[C@H](OC(=O)c3ccccc3)[C@]3(O)C[C@H](OC(=O)[C@H](O)[C@@H](NC(=O)c4ccccc4)c4ccccc4)C(C)=C([C@@H](OC(C)=O)C(=O)[C@]12C)C3(C)C` [Compound Ia, 7-O-methylthiomethylpaclitaxel], the ionization result in series [1] is recorded as “does not ionize”. For the same compound, the Solubility in series [2] is 2380 µg/mL (≈ 2600 µM). In series [3] (setting [8]), the “changes in appearance or pH” value was “no significant changes” and the “changes in potency or total oxidative degradants” value is on record as “no changes”. Also, in series [3] (2 Month at 25° C.), the Appearance result was “Clear, colorless”; the Potency was determined as 1460 µg/mL (≈ 1600 µM); the pH was 3.56. For the same compound, in series [3] (4 Month at 25° C.), the Appearance entry was “Clear, colorless”; the Potency stood at 1480 µg/mL (≈ 1620 µM); the pH is reported as 3.57. For the same compound, in series [3] (Initial), the Appearance result is listed as “Clear, colorless”; the Potency was 1440 µg/mL (≈ 1580 µM); the pH came to 3.71. Moreover, the “Total Impurities” value in series [4] (6 days @ 50° C.) was determined as 10.9 area %. Besides, the “Total Impurities” value in series [4] (16 days @ 50° C.) turned out to be 16.5 area %. In series [4] (Initial), the “Total Impurities” value turned out to be 2.1 area %. Moreover, the “effect of aqueous dilution” value in series [5] is recorded as “drug precipitation”. Also, the “buffer pH of best stability” value in series [6] came out at 4.5. In series [7], the “apparent pH of most stable solution” value is listed as 5.4 and the “tartrate buffer pH of most stable solution” value stood at 3.8.
